The test system of experiment [1] is normal cell line NIH3T3 (mouse embryo fibroblast cell line). The experiment in a line: MTT assay, NIH3T3 normal cells. In kind it is cell-based. The following applies: 72 h, read-out: Inhibition rates against different cells (%) NIH3T3. As to the method:
(§1) The in vitro antitumor activity of the newly synthesized compounds 5a–5n were evaluated against a panel of three human cancer cell lines, including human gastric cancer cell line MGC-803, human prostate cancer cell line PC3, and human breast cancer cell line Bcap-37, and one normal cell line NIH3T3 (mouse embryo fibroblast cell line) by MTT method. Adriamycin (ADM) was chosen as a reference drug due to its availability and widespread use. Each experiment was repeated at least three times.
(§2) Human gastric cancer cell line MGC-803, human prostate cancer cell line PC3, and human breast cancer cell line Bcap-37 and one normal cell line NIH3T3 were obtained from Cell Bank of Type Culture Collection of Chinese Academy of Sciences (Shanghai, China). NIH3T3 was routinely maintained in a DMEM medium, while all the other cell lines were cultured in a 1640 medium. All the cells were grown in the medium supplemented with 10% FBS at 37 °C with 5% CO2.
(§3) The growth-inhibitory effects of the test compounds were determined on MGC-803, PC3, Bcap-37, and NIH3T3 cells. All cell types were seeded into 96-well plates at a density of 2 × 10^3 cells/well 100 μL of the proper culture medium and incubated with increasing concentrations of the compounds at 37 °C under cell culturing conditions. An MTT assay (Roche Molecular Biochemicals, 1465-007) was performed 72 h later according to the instructions provided by Roche. The precipitated formazan crystals were dissolved in SDS, and the absorbance was read at 595 nm with a microplate reader (BIO-RAD, model 680), which is directly proportional to the number of living cells in culture. The experiment was performed in triplicate. The percentage cytotoxicity was calculated using the formula. %Cytotoxicity=Controlabs-Blankabs-Testabs-Blankabs/Controlabs-Blankabs×100
For orientation: Tetrazolium dyes change colour on reduction, which living cells bring about.

Experiment [2] concerns MGC-803 cells. Briefly: Hoechst 33,258 staining for apoptosis. The following applies: MGC-803 cells, 1, 5, and 10 μM, 12 h. In kind it is cell-based, human. Here is the method: Membrane-permeable Hoechst 33,258 was a blue fluorescent dye and stained the cell nucleus. […] MGC-803 cells treated with compound 5f at concentrations of 1, 5, and 10 μM for 12 h were stained with Hoechst 33,258, with HCPT as positive control at 10 μM for 12 h. The results are illustrated in Fig. 2b.
Cells were seeded in 6-well culture plates at a density of 5 × 10^4 cells/mL in 0.6 mL of medium and allowed to adhere to the plates overnight. The cells were incubated with different concentrations of compounds or vehicle solution (0.1% DMSO) in a medium containing 10% FBS for 12 h. After the treatment, the cells were fixed with 4% paraformaldehyde for 10 min, followed by incubation with Hoechst 33,258 staining solution (Beyotime) for 5 min and finally analyzed for morphological characteristics of cell apoptosis under a fluorescence microscope (Olympus Co., Japan).

Experiment [3] deals with human gastric cancer cell line MGC-803. Briefly: MTT assay, MGC-803 cells. In kind it is cell-based. As to the method: as §1, §2, §3
Experiment [4] relates to MGC-803 cells. Briefly: AO/EB staining for apoptosis. In kind it is cell-based, human. The conditions noted are these: 12 h, 5f at 1, 5, 10 μM, HCPT at 10 μM. As to the method:
It is well known that AO can pass through cell membranes, but EB cannot. Under the fluorescence microscope, living cells appear green. Necrotic cells stain red but have a nuclear morphology resembling that of viable cells. Apoptotic cells appear green, and morphological changes such as cell blebbing and formation of apoptotic bodies will be observed.
Representative images of the cells treated with 10 μM of HCPT (used as positive control) and 1, 5, 10 μM of compound 5f for 12 h are shown in Fig. 2a.
Cells were seeded in 6-well culture plates at a density of 5 × 10^4 cells/mL in 0.6 mL of medium and allowed to adhere to the plates overnight. The cells were incubated with different concentrations of compounds or vehicle solution (0.1% DMSO) in a medium containing 10% FBS for 12 h. After the treatment, the cover slip with monolayer cells was inverted on the glass slide with 20 μL of AO/EB stain (100 μg/mL), and finally analyzed for morphological characteristics of cell apoptosis under a fluorescence microscope (Olympus Co., Japan).

The test system of experiment [5] is MGC-803 cells. Briefly: Flow cytometry, Annexin V/PI double staining. In kind it is cell-based, human. The following applies: for apoptosis ratio: MGC-803 cells, 10 μM, 24 h. As to the method:
In addition, the apoptosis ratios induced by compound 5f in MGC-803 cells were determined by flow cytometry, using Annexin V/PI double staining. Flow cytometry was performed on the total cell population (including both adherent and detached cells) and apoptosis detection was carried out as mentioned above. This double staining procedure discriminated necrotic cells (Q1, Annexin^−/PI^+), late apoptotic cells (Q2, Annexin^+/PI^+), intact cells (Q3, Annexin^−/PI^−) and early apoptotic cells (Q4, Annexin^+/PI^−). […] For the positive control HCPT, the apoptosis ratio was only 22.3% after 24 h of treatment at a concentration of 10 μM.
To further quantitative analysis of apoptosis, the cells were washed with PBS, stained with annexinV-FITC and propidium iodide (PI) using the AnnexinV-FITC kit (KeyGEN BioTECH). The cells were then subjected to flow cytometry according to manufacturer’s instructions and the stained cells were analyzed by FACS can flow cytometer (Becton–Dickinson, CA, USA).
(In general: Flow cytometry measures light scatter and fluorescence of single cells or particles in a stream.)

Experiment [6] has as its system MGC-803 cells. Briefly: TUNEL assay. In kind it is cell-based, human. The conditions noted are these: 5 μM, 5f 6, 12, and 18 h, HCPT 18 h. As to the method:
To further verify AO/EB and Hoechst 33,258 staining results, TUNEL assay was also carried out. TUNEL (Terminal deoxynucleotidyl Transferase Biotin-dUTP Nick End Labeling) is a very popular assay for identifying apoptotic cells. The assay identifies apoptotic cells in situ by using terminal deoxynucleotidyl transferase (TdT) to transfer biotin-dUTP to these strand breaks of cleaved DNA. The biotin-labeled cleavage sites are then detected by reaction with HRP conjugated streptavidin and visualized by DAB showing brown color [24]. MGC-803 cells treated with compound 5f at 5 μM for 6, 12, and 18 h were stained with TUNEL, with HCPT as positive control at 5 μM for 18 h. […] We further concluded that compound 5f induced apoptosis against MGC-803.

In experiment [7] the test system is human breast cancer cell line Bcap-37. The experiment in a line: MTT assay, Bcap-37 cells. In kind it is cell-based. As to the method: as §1, §2, §3
Experiment [8] has as its system human prostate cancer cell line PC3. Briefly: MTT assay, PC3 cells. In kind it is cell-based. As to the method:
as §1, §2, §3

Usually inhibition stands for how much of the control response was suppressed. One may read the IC50 as the point on the concentration scale where inhibition reaches its midpoint.

With `Cc1ccc2ncnc(Oc3ccccc3/C=C/C(=O)/C=C/c3c(Cl)cccc3Cl)c2c1` [Compound 5f, (1E,4E)-1-(2,6-dichlorophenyl)-5-(2-((6-methylquinazolin-4-yl)oxy)phenyl)penta-1,4-dien-3-one], the inhibition at 10 µM in experiment [1] was found to be 21.5 ± 2.7%; in experiment [3] (10 μM, 72 h, read-out: Inhibition rates against different cells (%) MGC-803), 90.7 ± 0.6%; in experiment [7] (Bcap37, 10 μM, 72 h, read-out: Inhibition rates against different cells (%) Bcap-37), 76.5 ± 1.9%; in experiment [8] (PC-3, 10 μM, 72 h, read-out: Inhibition rates against different cells (%) PC3), 93 ± 1.8%. In addition, the “Hoechst 33,258 staining, apoptotic morphology” value in the experiment on MGC-803 cells [2] was “exhibited strong blue fluorescence and revealed typical apoptotic morphology”. In addition, the IC50 in experiment [3] (72 h after treatment) came to 0.85 ± 0.43 µM; in experiment [7] (Bcap37, 72 h after treatment) it was 4.98 ± 0.39 µM; in experiment [8] (PC-3, 72 h after treatment), 1.37 ± 0.22 µM. Also, in the experiment with MGC-803 cells [4], the “AO/EB staining, apoptotic morphology” value is recorded as “apoptotic cells with typical apoptotic features”. The “apoptosis of MGC-803 cells over time” value in the experiment with MGC-803 cells [5] (10 μM for 6, 12, and 24 h) was “gradually increased in a time-dependent manner”. Besides, the apoptosis ratio in the experiment with MGC-803 cells [5] stood at 26.4%. The TUNEL staining result in the experiment with MGC-803 cells [6] was “appeared as brown precipitate”.
On to `CC[C@@]1(O)C(=O)OCc2c1cc1n(c2=O)Cc2cc3cc(O)ccc3nc2-1` [HCPT, 10-hydroxyl camptothecine, reference compound], for which the “AO/EB staining, apoptotic morphology” value with MGC-803 cells [4] is listed as “apoptotic cells with typical apoptotic features”. Besides, the apoptosis ratio with MGC-803 cells [5] came to 22.3%. In the experiment with MGC-803 cells [6], the TUNEL staining result is reported as “appeared as brown precipitate”.

(Values after article PMC5352699, “Synthesis and in vitro antitumor activity of (1E,4E)-1-aryl-5-(2-((quinazolin-4-yl)oxy)phenyl)-1,4-pentadien-3-one derivatives” (Chemistry Central Journal, 2017).)
